Data set [1] concerns LPS-induced pulmonary inflammation model in rats. The data set can be described thus: LPS-induced pulmonary inflammation model in rats (Method A). The format is in vivo. Conditions: Rattus norvegicus, inhaled or nasal, dosage of 1 mg/kg, intratracheal dry powder insufflation 2 h prior LPS challenge, BALF 16 h after LPS, in comparison to the placebo group. How it is done: Exposure of rats to aerosolized lipopolysaccharide (LPS) causes a pulmonary mainly neutrophilic inflammation, which can be assessed by bronchoalveolar lavage (BAL). LPS-induced pulmonary inflammation models are robust and are commonly used for the evaluation of test compounds modulating the immediate immune response. Phosphodiesterase-4 inhibitors are administered by intratracheal dry powder insufflation 2 h prior nose-only LPS challenge in rats. The antiinflammatory activity of the phosphodiesterase inhibitors is assessed based on pulmonary total leukocyte and neutrophil counts in the bronchoalveolar lavage fluid 16 h after LPS exposure.
Male Sprague Dawley rats weighing 250-300 g are used. Rats are delivered 1 weak prior to the experiments and have free access to water and food.
The test compound in crystalline and micronized state is blended with lactose for inhalation ad 10 mg/kg (Respitose® SV003, DMV International, Netherlands). Respitose® and test compound are transferred to 12 ml tubes and are blended for 10 min. Dilution series are prepared from the this stock blend.
A device consisting of an Abbocath®-T catheter (18G×51 mm), a one-way stop-cock and a 5 ml syringe is used for test compound insufflation. Weighed test compound blends are directly filled in the stop-cocks. Intubation of the rats is guided by sight and is done under a short time halothane anesthesia.
The administered dose of the blended material is 10 mg/kg. The expected material loss in the device is 25%, therefore the weighted dose used is 12.5 mg/kg. One day before the experiment the rat body weights are documented and the mean body weight is used to calculate the administered blend dose per rat. LPS challenged and unchallenged control animals received drug-free Respitose® as placebo. Test compound blends and Respitose are administered 2 h prior LPS challenge.
Conscious and restrained animals are connected to a nose-only exposure system (CR equipment SA, Tannay, Switzerland) and are exposed to the LPS aerosol for 30 min. The LPS-containing aerosol is generated using a compressed air driven medication nebulizer device (OCTURNO Medizintechnik GmbH, Germany). The LPS solution (E. coli, Serotype 055B5, Art.#L2880, Lot#114K4103, Sigma-Aldrich; 0.15 mg/ml, diluted in 0.1% hydroxylamine/PBS) is continuously delivered by a syringe pump (20 ml/h) to the nebulizer device. The aerosol is dispersed and transported to the exposure tower by admixture of compressed air. All rats except negative controls are exposed to LPS.
Sixteen hours after LPS challenge, animals are sacrificed with Trapanal (thiopental, […], 2 ml/rat, i.p.), the final body weights are determined and BALs are performed. For the BAL the trachea is exposed and cannulated, followed by gently lavaging the lungs three times in situ with 4 ml PBS buffer.
Determination of total leukocyte and neutrophil counts in BALF is performed with an automated leukocyte differentiation system (XT-20001V, Sysmex, Norderstedt, Germany).
Suppression of LPS-induced total cell and neutrophil influx into the lungs is calculated in % using the means of the cell counts of each treatment group in relation to the control groups:
Statistical analysis is performed on the primary cell count data using one-way ANOVA and Dunnett's multiple comparison post test vs. positive control. The Grubbs test is used to detect outliers.

[2] abbreviates: Neutrophil, read-out: reduction of neutrophils.
Where [3] appears, read: read-out: reduction of the total cell count.

Like-named read-outs stand apart in the source and are kept apart here.

Take `COc1ccc(C2=NN(C3CCN(C(=O)c4cccc(Cl)c4)CC3)C(=O)C2(C)C)cc1OC` [Compound 69, 2-{1-[(3-Chlorophenyl)carbonyl]piperidin-4-yl}-5-(3,4-dimethoxyphenyl)-4,4-dimethyl-2,4-dihydro-3H-pyrazol-3-one]: the figures for the inhibition in vivo at 1 mg/kg in data set [1] (setting [2]) and in data set [1] (setting [3]) were 15 to 53% and 22 to 60%, respectively.

`COc1ccc(C2=NN(C3CCN(C(=O)c4cc(OCc5ccccc5)ccc4C)CC3)C(=O)C2(C)C)cc1OC` [Compound 84, 2-(1-{[5-(Benzyloxy)-2-methylphenyl]carbonyl}piperidin-4-yl)-5-(3,4-dimethoxyphenyl)-4,4-dimethyl-2,4-dihydro-3H-pyrazol-3-one]: the inhibition in vivo at 1 mg/kg fell in the range of 15 to 53% in data set [1] (setting [2]) and 22 to 60% in data set [1] (setting [3]).

Regarding `COc1ccc(C2=NN(C3CCN(C(=O)c4ccccc4Br)CC3)C(=O)C2(C)C)cc1OC` [Compound 72, 2-{1-[(2-Bromophenyl)carbonyl]piperidin-4-yl}-5-(3,4-dimethoxyphenyl)-4,4-dimethyl-2,4-dihydro-3H-pyrazol-3-one], the inhibition in vivo at 1 mg/kg is 15 to 53% in data set [1] (setting [2]) and 22 to 60% in data set [1] (setting [3]).

`COc1ccc(C2=NN(C3CCN(C(=O)c4cccc5ccccc45)CC3)C(=O)C2(C)C)cc1OC` [Compound 68, 5-(3,4-Dimethoxyphenyl)-4,4-dimethyl-2-[1-(naphthalen-1-ylcarbonyl)piperidin-4-yl]-2,4-dihydro-3H-pyrazol-3-one]: the inhibition in vivo at 1 mg/kg in data set [1] (setting [2]) is 15 to 53%; in data set [1] (setting [3]), 22 to 60%.

The compound `COc1ccc(C2=NN(C3CCN(C(=O)c4ccccc4O)CC3)C(=O)C2(C)C)cc1OC` [Compound 94, 5-(3,4-Dimethoxyphenyl)-2-{1-[(2-hydroxyphenyl)carbonyl]piperidin-4-yl}-4,4-dimethyl-2,4-dihydro-3H-pyrazol-3-one] gave a melting point of 212 to 213 °C. The inhibition in vivo at 1 mg/kg in data set [1] (setting [2]) fell in the range of 15 to 53%. Besides, in data set [1] (setting [3]), the inhibition in vivo at 1 mg/kg lay in the range of 22 to 60%.

As for `COC(=O)c1ccccc1S(=O)(=O)N1CCC(N2N=C(c3ccc(OC)c(OC)c3)C(C)(C)C2=O)CC1` [Compound 2, Methyl 2-({4-[3-(3,4-dimethoxyphenyl)-4,4-dimethyl-5-oxo-4,5-dihydro-1H-pyrazol-1-yl]piperidin-1-yl}sulfonyl)benzoate], the inhibition in vivo at 1 mg/kg in data set [1] (setting [2]) lay within 15 to 53%; in data set [1] (setting [3]), 22 to 60%.

`COc1ccc(C2=NN(C3CCN(C(=O)c4ccccc4OCC(N)=O)CC3)C(=O)C2(C)C)cc1OC` [Compound 97, 2-[2-({4-[3-(3,4-Dimethoxyphenyl)-4,4-dimethyl-5-oxo-4,5-dihydro-1H-pyrazol-1-yl]piperidin-1-yl}carbonyl)phenoxy]acetamide]: the inhibition in vivo at 1 mg/kg was in the range of 15 to 53% in data set [1] (setting [2]) and 22 to 60% in data set [1] (setting [3]).

Take `COc1ccc(C2=NN(C3CCN(S(=O)(=O)c4ccccc4C(F)(F)F)CC3)C(=O)C2(C)C)cc1OC` [Compound 18, 5-(3,4-Dimethoxyphenyl)-4,4-dimethyl-2-(1-{[2-(trifluoromethyl)phenyl]sulfonyl}piperidin-4-yl)-2,4-dihydro-3H-pyrazol-3-one]: the inhibition in vivo at 1 mg/kg in data set [1] (setting [2]) was in the range of 15 to 53%; in data set [1] (setting [3]), 22 to 60%.

`COc1ccc(C2=NN(C3CCN(C(=O)c4cc5ccccc5[nH]4)CC3)C(=O)C2(C)C)cc1OC` [Compound 61, 5-(3,4-Dimethoxyphenyl)-2-[1-(1H-indol-2-ylcarbonyl)piperidin-4-yl]-4,4-dimethyl-2,4-dihydro-3H-pyrazol-3-one] showed a melting point of 265 °C.

`CCOc1cccc(C(=O)N2CCC(N3N=C(c4ccc(OC)c(OC)c4)C(C)(C)C3=O)CC2)c1` [Compound 70, 5-(3,4-Dimethoxyphenyl)-2-{1-[(3-ethoxyphenyl)carbonyl]piperidin-4-yl}-4,4-dimethyl-2,4-dihydro-3H-pyrazol-3-one] showed a melting point of 154 to 156 °C. For the same compound, in data set [1] (setting [2]), the inhibition in vivo at 1 mg/kg lay within 15 to 53%. The inhibition in vivo at 1 mg/kg in data set [1] (setting [3]) lay within 22 to 60%.

On to `COc1ccc(C2=NN(C3CCN(S(=O)(=O)c4cccc(C(=O)O)c4)CC3)C(=O)C2(C)C)cc1OC` [Compound 25, 3-({4-[3-(3,4-Dimethoxyphenyl)-4,4-dimethyl-5-oxo-4,5-dihydro-1H-pyrazol-1-yl]piperidin-1-yl}sulfonyl)benzoic acid], for which the melting point was 244 °C.

Compound `COc1ccc(C2=NN(C3CCN(C(=O)c4cc(O)ccc4C)CC3)C(=O)C2(C)C)cc1OC` [Compound 85, 5-(3,4-Dimethoxyphenyl)-2-{1-[(5-hydroxy-2-methylphenyl)carbonyl]piperidin-4-yl}-4,4-dimethyl-2,4-dihydro-3H-pyrazol-3-one] registered a melting point of 214 to 215 °C. Also, the inhibition in vivo at 1 mg/kg in data set [1] (setting [2]) is 15 to 53%. The inhibition in vivo at 1 mg/kg in data set [1] (setting [3]) lay within 22 to 60%.

With `COc1ccc(C2=NN(C3CCN(C(=O)c4cc(O)ccc4F)CC3)C(=O)C2(C)C)cc1OC` [Compound 90, 5-(3,4-Dimethoxyphenyl)-2-{1-[(2-fluoro-5-hydroxyphenyl)carbonyl]piperidin-4-yl}-4,4-dimethyl-2,4-dihydro-3H-pyrazol-3-one], the results for the inhibition in vivo at 1 mg/kg in data set [1] (setting [2]) and in data set [1] (setting [3]) were 15 to 53% and 22 to 60%, respectively.

Turning to `COc1cccc(C(=O)N2CCC(N3N=C(c4ccc(OC)c(OC)c4)C(C)(C)C3=O)CC2)c1` [Compound 65, 5-(3,4-Dimethoxyphenyl)-2-{1-[(3-methoxyphenyl)carbonyl]piperidin-4-yl}-4,4-dimethyl-2,4-dihydro-3H-pyrazol-3-one], the inhibition in vivo at 1 mg/kg in data set [1] (setting [2]) is 15 to 53%; in data set [1] (setting [3]), 22 to 60%.

The compound `COC(=O)c1cccc(S(=O)(=O)N2CCC(N3N=C(c4ccc(OC)c(OC)c4)C(C)(C)C3=O)CC2)c1` [Compound 26, Methyl 3-({4-[3-(3,4-dimethoxyphenyl)-4,4-dimethyl-5-oxo-4,5-dihydro-1H-pyrazol-1-yl]piperidin-1-yl}sulfonyl)benzoate] showed a melting point of 214 °C.

Regarding `COc1ccc(C2=NN(C3CCN(S(=O)(=O)c4ccccc4F)CC3)C(=O)C2(C)C)cc1OC` [Compound 14, 5-(3,4-Dimethoxyphenyl)-2-{1-[(2-fluorophenyl)sulfonyl]piperidin-4-yl}-4,4-dimethyl-2,4-dihydro-3H-pyrazol-3-one], the inhibition in vivo at 1 mg/kg is 15 to 53% in data set [1] (setting [2]) and 22 to 60% in data set [1] (setting [3]).

Compound `COc1ccc(C2=NN(C3CCN(C(=O)c4ccccc4OC4CCCC4)CC3)C(=O)C2(C)C)cc1OC` [Compound 96, 2-(1-{[2-(Cyclopentyloxy)phenyl]carbonyl}piperidin-4-yl)-5-(3,4-dimethoxyphenyl)-4,4-dimethyl-2,4-dihydro-3H-pyrazol-3-one] had a melting point of 176 °C. Also, in data set [1] (setting [2]), the inhibition in vivo at 1 mg/kg was 15 to 53%. Also, in data set [1] (setting [3]), the inhibition in vivo at 1 mg/kg was in the range of 22 to 60%.

In turn, `COc1cc(C2=NN(C3CCN(S(=O)(=O)c4cccc(C)c4)CC3)C(=O)C2(C)C)cc2c1OC(C)(C)C2` [Compound 32, 5-(7-Methoxy-2,2-dimethyl-2,3-dihydro-1-benzofuran-5-yl)-4,4-dimethyl-2-{1-[(3-methylphenyl)sulfonyl]piperidin-4-yl}-2,4-dihydro-3H-pyrazol-3-one] returned a melting point of 183 °C.

Take `COc1ccc(C2=NN(C3CCN(S(=O)(=O)c4c(C(C)C)cc(C(C)C)cc4C(C)C)CC3)C(=O)C2(C)C)cc1OC` [Compound 9, 5-(3,4-Dimethoxyphenyl)-4,4-dimethyl-2-(1-{[2,4,6-tri(propan-2-yl)phenyl]sulfonyl}piperidin-4-yl)-2,4-dihydro-3H-pyrazol-3-one]: the figures for the inhibition in vivo at 1 mg/kg in data set [1] (setting [2]) and in data set [1] (setting [3]) were 15 to 53% and 22 to 60%, respectively.

Regarding `COc1ccc(C2=NN(C3CCN(S(=O)(=O)c4cccc(C)c4)CC3)C(=O)C2(C)C)cc1OC` [Compound 11, 5-(3,4-Dimethoxyphenyl)-4,4-dimethyl-2-{1-[(3-methylphenyl)sulfonyl]piperidin-4-yl}-2,4-dihydro-3H-pyrazol-3-one], the inhibition in vivo at 1 mg/kg in data set [1] (setting [2]) is 15 to 53%; in data set [1] (setting [3]) it was 22 to 60%.

A word on the melting point: it is the temperature of the solid-liquid transition.

(Values after US9340522B2, “Pyrazolone-derivatives and their use as PDE-4 inhibitors” (TAKEDA GMBH, priority 2008, dated 2016).)
